Source: patent US11318133B2, “Modulators of integrated stress response pathway” (Praxis Biotech LLC, priority 2019, dated 2022)
pIC50: −log10 of the molar value.

How the values were obtained:
ATF4 = ATF4 expression inhibition assay (ATF4 luciferase reporter, thapsigargin-stressed); format: cell-based; conditions: Homo sapiens, HEK-293T; HEK293T cells carrying ATF4 luciferase reporter, 100 nM thapsigargin, 3 hours
Method: The ATF4 reporter was prepared by fusing the human full length 5′UTR of ATF4 (NCBI Accession No. BC022088.2) upstream of the firefly luciferase coding sequence lacking the initiator methionine. The fused sequence was cloned into pLenti-EF1a-C-Myc-DDK-IRES-Puro cloning vector (Origen #PS100085) using standard methods. Virus production was carried out by using Lenti-X™ Packaging Single Shots Protocol (Clonetech #631276). Viral particles were used to transduce HEK293T cells (ATCC #CRL-3216, ATCC Manassas, Va.), which were subsequently selected with puromycin to generate stable cell line. Cells were maintained at 37° C. and 5% CO2 in DMEM-F12 (Hyclone #SH30023.02) supplemented with 10% heat-inactivated fetal bovine serum (Gibco #16000-044), 2 mM L-glutamine (Gibco #25030-081), 100 U/ml penicillin, and 100 μg/ml streptomycin (Gibco #15140-122).
HEK293T cells carrying the ATF4 luciferase reporter were plated on 96-well plates (Nunc) at 10,000 cells per well. Cells were treated two days after seeding with 100 nM thapsigargin (Tg) (Sigma-Aldrich #T9033) in the presence of different concentrations of selected compounds ranging from 1 nM to […]. Cells without treatment or cells treated with Tg alone were used as controls. Assay plates containing cells were incubated for 3 hours at 37° C.
Luciferase reactions were performed using Luciferase Assay System (Promega #E1501) as specified by the manufacturer. Luminescence was read with an integration time of 1 s and a gain of 110 using a Cytation-5 multi-mode microplate reader (BioTek). Relative luminescence units were normalized to Tg treatment (0% inhibition) and untreated cells (100% inhibition) and the percentage of ATF4 inhibition was calculated.
Accordingly, inhibition of ATF4 expression as a result of the test compound indicates suppression of the ISR pathway.

[1] = tested on: Chinese hamster ovary (CHO) cells; test: Protein synthesis assay (puromycin incorporation, western blot); format: cell-based; conditions: without Tg, 2 hours, media alone = 100%
Method: Chinese hamster ovary (CHO) cells were maintained at 37° C. and 5% CO2 in Dulbecco's Modified Eagle's Media (DMEM) supplemented with 10% fetal bovine serum, 2 mM L-glutamine, 100 U/ml penicillin, and 100 μg/ml streptomycin. After reaching 80% of confluence, cells were detached and seeded on 6 well plates in complete media, allowed to recover overnight and treated for 2 hours with 1 μM of the test compound (to assess protein synthesis levels in unstressed condition), or for 2 hours with 300 nM Tg in the presence of 1 μM of the test compound (to assess the recovery of protein synthesis in a stressed condition). Cells with Tg alone were used as controls.
After the 2 hours treatments, media were replaced by adding 10 μg/ml puromycin (Sigma Aldrich #P8833) in complete media for 30 min. Media were removed and cells were lysed with SDS-PAGE lysis buffer. Lysates were transferred to 1.5 ml tubes and sonicated for 3 min and total protein amount were quantified using BCA Protein Assay Kit (Pierce). Equal amount of protein (30 μg) was loaded on SDS-PAGE gels. Proteins were transferred onto […] PVDF membranes (BioRad) and probed with primary antibodies diluted in Tris-buffered saline supplemented with 0.1% Tween 20 (Merck #S6996184 505) and 3% bovine serum albumin (Rockland #BSA-50).
(§1) Puromycin (12D10) (Merck #MABE343) and 3-actin (Sigma Aldrich #A5441) antibodies were used as primary antibody. A HRP-conjugated secondary antibody (Rockland) was employed to detect immune-reactive bands using enhanced chemiluminescence (ECL Western Blotting Substrate, Pierce). Quantification of protein bands was done by densitometry using ImageJ software.
Percent increase of protein synthesis in unstressed cells (without Tg treatment) in the presence of media alone or certain test compounds is shown in Table 3. The percentage levels were normalized to the media alone condition, which correspond to 100% protein synthesis.
Percent recovery of protein synthesis in stressed cells (with Tg treatment) due to the test compounds at 1 μM is also shown in Table 3. The levels were normalized to the media alone and Tg alone conditions, which correspond to 100% and 0% respectively.

Balb/c mice = test: Fasting-induced muscle atrophy, in vivo protein synthesis; conditions: 10 mg/kg oral, 2 days fasting, versus vehicle-treated fasted mice; FIG. 1
Method: Wild type eight-weeks-old male Balb/c mice obtained from the vivarium Fundaciön Ciencia & Vida Chile (Santiago, Chile) are used. Mice were housed in independent plastic cages in a room maintained at 25° C. with a 12-h:12-h light:dark cycle. […]
Upon collection, muscles were immediately frozen in liquid nitrogen and then stored at −80° C. […] Protein concentration in supernatants was determined using BCA Protein Assay Kit (Pierce). […]
as §1, with “Millipore,” for “#MABE343)”, “β-actin (Sigma-Aldrich)” for “3-actin (Sigma Aldrich #A5441)”, “antibodies.” for “antibody.”
Percent of protein synthesis in tibialis anterior of each mouse from fed or fasted animals treated with vehicle or compound 3 is shown in FIG. 1. The levels were normalized to β-actin expression and percentage was calculated as the percent relative to protein synthesis levels from control mice (Fed) which correspond to 100%.

Compound	pIC50 (ATF4)	% Protein synthesis in unstressed cells (1 μM test compound) [1] [%]	Protein synthesis in tibialis anterior of fasted mice (Balb/c mice)
O=C(NC1CCN(CC(O)COc2ccc(Cl)c(F)c2)CC1)c1cn(C2CC2)c2cc(Cl)c(F)cc2c1=O (centres unmarked) [Compound 1, 7-chloro-N-(1-(3-(4-chloro-3-fluorophenoxy)-2-hydroxypropyl)piperidin-4-yl)-1-cyclopropyl-6-fluoro-4-oxo-1,4-dihydroquinoline-3-carboxamide]	< 5.00	336.9	–
O=C(NN1CCN(C[C@@H](O)COc2ccc(Cl)c(F)c2)CC1)c1cn(C2CC2)c2cc(Cl)c(F)cc2c1=O [Compound 5, (R)-7-chloro-N-(4-(3-(4-chloro-3-fluorophenoxy)-2-hydroxypropyl)piperazin-1-yl)-1-cyclopropyl-6-fluoro-4-oxo-1,4-dihydroquinoline-3-carboxamide]	< 5.00	173.2	–
O=C(NN1CCN(C[C@H](O)COc2ccc(Cl)c(F)c2)CC1)c1cn(C2CC2)c2cc(Cl)c(F)cc2c1=O [Compound 6, (S)-7-chloro-N-(4-(3-(4-chloro-3-fluorophenoxy)-2-hydroxypropyl)piperazin-1-yl)-1-cyclopropyl-6-fluoro-4-oxo-1,4-dihydroquinoline-3-carboxamide]	< 5.00	244.5	–

Now from value to compound, other results behind:

pIC50 (ATF4)	Compound	% Protein synthesis in unstressed cells (1 μM test compound) [1] [%]	Protein synthesis in tibialis anterior of fasted mice (Balb/c mice)
< 5.00	O=C(NC1CCN(C[C@@H](O)COc2ccc(Cl)c(F)c2)CC1)c1cn(C2CC2)c2cc(Cl)c(F)cc2c1=O [Compound 2, (R)-7-chloro-N-(1-(3-(4-chloro-3-fluorophenoxy)-2-hydroxypropyl)piperidin-4-yl)-1-cyclopropyl-6-fluoro-4-oxo-1,4-dihydroquinoline-3-carboxamide]	336.3	–
< 5.00	O=C(NC1CCN(C[C@H](O)COc2ccc(Cl)c(F)c2)CC1)c1cn(C2CC2)c2cc(Cl)c(F)cc2c1=O [Compound 3, (S)-7-chloro-N-(1-(3-(4-chloro-3-fluorophenoxy)-2-hydroxypropyl)piperidin-4-yl)-1-cyclopropyl-6-fluoro-4-oxo-1,4-dihydroquinoline-3-carboxamide]	397.3	improvement in protein synthesis in muscles
